The values that follow come from US20250129049A1, “1H-PYRAZOLE-3-AMINE DERIVATIVE HAVING BICYCLIC BACKBONE” (Sumitomo Pharma Co., Ltd., priority 2021, published 2025).

One data set concerns the target hERG current (Homo sapiens (Human), UniProt Q12809). The data set is described as follows: cell-based.
The nature of data set [1]: Liposome encapsulation test. Particulars: concentration upon compound introduction 2 or 3 mg/mL. The data set is classed as physicochemical. The method, then: 6.48 g of hydrogenated soybean phosphatidylcholine (COATSOME NC-21E, NOF Corporation), 2.32 g of cholesterol (Sigma) and 2.06 g of distearoylphosphatidylethanolamine-methoxypolyethylene glycol 2000 (SUNBRIGHT DSPE-020CN, NOF Corporation) were dissolved in 560 mL of t-butyl alcohol heated to 65° C. The solution was frozen with dry ice/acetone bath and t-butyl alcohol was then removed by evaporation under reduced pressure to obtain a lipid mixture.
200 mL of 250 mM ammonium sulfate solution was added to the lipid mixture. The resulting mixture was heated to 65° C. and dispersed with a homogenizer (ULTRA-TURRAX, IKA) to obtain a crude liposome dispersion. […] A dialysis cassette (Slide-A-Lyzer G2 Dialysis Cassettes 20K MWCO, Thermo Scientific) was used to replace the outer aqueous phase of the liposome with a 10 mM L-histidine buffer/10% sucrose solution (pH 6.5) to obtain an empty liposome solution. The solution was filtered through a 0.22 μm membrane filter, and a 10 mM L-histidine buffer/10% sucrose solution (pH 6.5) was added to adjust the total lipid concentration to be 75 mM (75 μmol/mL) or 50 mM (50 μmol/mL). The prepared amount was increased or decreased appropriately.
2 to 3 mg of the test compound was weighed out. 1 mL of the empty liposome solution with a total lipid concentration of 50 mM was added. An aqueous 1 mol/L hydrochloric acid or 1 mol/L sodium hydroxide solution was added to adjust the pH to 5.5 to 7. […] Insoluble substances, when present, were removed by centrifugation for 5 minutes at 15,000× g.
The liposome encapsulation ratio was calculated as follows.
100 μL of liposome solution was passed through an ultrafiltration filter (Amicon Ultra, 100K, 0.5 mL, Merck), and centrifuged at 4° C. at 15,000×g for 10 minutes. The concentration of the compound in the filtrate after ultrafiltration was measured by HPLC as the unencapsulated compound concentration.
The liposome solution was diluted with a trifluoroacetic acid/water/methanol mixture (0.1/25/75) and was left standing for 10 minutes or longer at 5° C. The solution was centrifuged for 5 minutes at 15,000× g to remove insoluble substances. The compound concentration in the supernatant was measured by HPLC as the compound concentration in the liposome solution.
The encapsulation ratio and the encapsulation efficiency were calculated by the following equations.
HPLC measurement conditions are the following.

In another data set the test system is ES-2 cells. In words: Cell growth suppression experiment (ES-2). Particulars: Homo sapiens, 48 h, cultured 2 days, CellTiter-Glo 3D. Type of data set: cell-based. Here is the method: ES-2 cells were obtained from the American Type Culture Collection (ATCC). These cells were cultured at 37° C. in the presence of 5% CO2 in a McCoy's 5a medium containing 10% fetal bovine serum and 1% penicillin/streptomycin.
500 cells were seeded for each well in a 384-well plate, and the evaluated compound was added to the final DMSO concentration of 0.1% to culture the cells for 2 days. After completion of the culture, the cell viability rate was calculated using CellTiter-Glo (registered trademark) 3D Reagent (Promega, G968B).
A general note: Cellular ATP, detected with luciferase, serves as a proxy for viable cell number.

The target of the next data set is CHK1 kinase (Homo sapiens (Human), UniProt O14757).
CHK1 kinase, sequence (O14757 whole entry): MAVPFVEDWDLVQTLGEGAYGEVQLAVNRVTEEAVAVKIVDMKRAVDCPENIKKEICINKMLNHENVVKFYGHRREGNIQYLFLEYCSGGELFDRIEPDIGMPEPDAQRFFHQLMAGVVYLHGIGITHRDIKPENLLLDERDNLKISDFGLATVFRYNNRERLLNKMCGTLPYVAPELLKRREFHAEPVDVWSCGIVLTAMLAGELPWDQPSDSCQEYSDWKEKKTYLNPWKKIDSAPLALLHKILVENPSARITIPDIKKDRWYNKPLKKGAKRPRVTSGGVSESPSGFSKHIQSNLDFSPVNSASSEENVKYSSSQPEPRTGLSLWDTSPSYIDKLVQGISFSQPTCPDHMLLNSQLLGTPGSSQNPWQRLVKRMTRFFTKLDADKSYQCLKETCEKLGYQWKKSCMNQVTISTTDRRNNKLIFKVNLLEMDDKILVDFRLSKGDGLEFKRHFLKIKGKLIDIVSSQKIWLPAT
The nature of data set [2]: Pharmacokinetic test, intravenous administration to mice. Type of data set: in vivo. Particulars: female, BALB/c, mouse, plasma, liposome formulations, 1.0 mg/kg i.v., trapezoidal method, 0 hours to last quantifiable time. Here is the method: Blood was collected over time up to 72 hours after administration from the jugular vein under no anesthesia.
The target of a further data set is hERG (Homo sapiens (Human), UniProt Q12809). In words: in vitro. Particulars: CHO cells stably expressing hERG. In general terms: The hERG channel carries a current that helps repolarise heart muscle cells.
hERG, sequence (Q12809 whole entry): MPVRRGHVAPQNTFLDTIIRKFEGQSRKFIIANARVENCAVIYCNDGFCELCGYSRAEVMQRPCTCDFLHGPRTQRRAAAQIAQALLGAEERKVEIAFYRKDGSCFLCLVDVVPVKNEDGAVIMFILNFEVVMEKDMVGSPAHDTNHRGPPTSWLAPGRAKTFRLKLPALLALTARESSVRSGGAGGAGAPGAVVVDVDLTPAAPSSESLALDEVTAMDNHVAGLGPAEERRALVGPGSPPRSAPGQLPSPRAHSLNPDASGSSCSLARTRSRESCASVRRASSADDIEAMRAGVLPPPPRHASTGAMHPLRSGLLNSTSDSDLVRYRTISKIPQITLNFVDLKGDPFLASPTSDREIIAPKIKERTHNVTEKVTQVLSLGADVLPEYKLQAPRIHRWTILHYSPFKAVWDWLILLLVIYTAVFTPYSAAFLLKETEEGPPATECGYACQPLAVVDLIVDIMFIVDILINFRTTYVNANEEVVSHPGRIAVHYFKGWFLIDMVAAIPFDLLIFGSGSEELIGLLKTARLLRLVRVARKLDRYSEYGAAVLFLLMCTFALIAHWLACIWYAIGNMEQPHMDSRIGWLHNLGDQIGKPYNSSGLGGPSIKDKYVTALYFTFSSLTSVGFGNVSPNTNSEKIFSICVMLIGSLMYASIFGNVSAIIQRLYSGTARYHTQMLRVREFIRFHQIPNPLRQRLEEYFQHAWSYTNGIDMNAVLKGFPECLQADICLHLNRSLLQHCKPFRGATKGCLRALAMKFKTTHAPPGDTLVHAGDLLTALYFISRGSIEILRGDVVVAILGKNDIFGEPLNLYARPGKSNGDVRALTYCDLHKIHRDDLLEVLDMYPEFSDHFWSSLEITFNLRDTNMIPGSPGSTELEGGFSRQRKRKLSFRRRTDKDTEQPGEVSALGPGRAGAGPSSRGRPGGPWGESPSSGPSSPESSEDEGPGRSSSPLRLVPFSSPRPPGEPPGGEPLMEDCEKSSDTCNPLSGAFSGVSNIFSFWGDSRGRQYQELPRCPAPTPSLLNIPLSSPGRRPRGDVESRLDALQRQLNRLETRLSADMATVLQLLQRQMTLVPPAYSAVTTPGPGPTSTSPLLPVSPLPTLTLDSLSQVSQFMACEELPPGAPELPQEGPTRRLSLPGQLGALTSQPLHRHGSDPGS

hERG current, sequence (Q12809 whole entry): as above
Protocol for CHK1 kinase: FAM-PKAtide (R7255, Molecular Devices) and FAM-Phospho-PKAtide (R7304, Molecular Devices) were admixed after dilution, and calibration standard systems for phosphorylation levels from 0 to 100% were prepared. 5 μL of a compound dissolved in a 0.4% DMSO solution was added to a 384 well plate. A compound study group to which 5 μL of each of CHK1, CHK1tide, and ATP was added, and a standard group to which 20 μL of standard was added were prepared, and subjected to a kinase reaction for 3 hours at 30° C. Subsequently, 60 μL of Binding Reagent (80V % Buffer A, 20% Buffer B, 1:600 Binding Reagent, 1:400 Tb-Donor) was added for a binding reaction for 2 hours at room temperature. SpectraMax Paradigm (Molecular Devices) was used to obtain fluorescence intensity of 520 nm or 490 nm as of 340 nm excitation.

A word on the IC50: it is the concentration that inhibits the measured activity by half. Broadly, the AUC(0-t) is the area under the concentration-time curve up to a stated or last time point. `N#Cc1cnc(Nc2cc(-c3c(OCC4(CN)CC4)cnc4c3OCC4)[nH]n2)cn1` [Example 14, 5-{[5-(6-{[1-(aminomethyl)cyclopropyl]methoxy)-2,3-dihydrofuro[3,2-b]pyridin-7-yl)-1H-pyrazol-3-yl]amino}pyrazine-2-carbonitrile]: the figures for the IC50 against hERG current, with ES-2 cells and against CHK1 kinase were more than 10000 nM, 3.72 nM and 0.27 nM, respectively. The “Compound concentration in liposome solution” value in data set [1] is 1940 µg/mL. Besides, the Encapsulation ratio in data set [1] is listed as 99.9%. Besides, the AUC(0-t) in data set [2] was 397 µg·h/mL. Also, the selectivity ratio at hERG was not below 800.
